Results from patent publication US20050009094A1 (priority 2001, published 2005).

Tests used:
14-3-3 gene expression = assay: Expression of 14-3-3 gene in G. cydonium after exposition to PCB118 (Northern and Western Blotting); type: in vivo, Geodia cydonium; conditions: 2 μg PCB 118/g wet weight, incubation 0.5 to 6 days
Description: The analyses were accomplished by means of Northern Blotting [14-3-3 probe] (A) or Western Blotting [14-3-3 antibody] (B).
The employed method was PCR cloning.
The detection of expression of the 14-3-3 proteins on the protein level is accomplished by using antibodies. To this aim, one can either employ commercial antibodies (e.g. from the Calbiochem/Oncogene company) or antibodies raised against the recombinant invertebrate-14-3-3 protein from Geodia cydonium. […] The signals can again be quantified by using the chemiluminescence method. The tissue extracts can e.g. be prepared by homogenisation in a phosphate buffer containing 1 mM of EDTA and 1 mM of phenylmethylsulfonyl fluoride.
The 14-3-3-cDNA from the sea sponge Geodia cydonium was used as a gene probe for the detection of expression of the 14-3-3 proteins on the mRNA-level and the respective antibodies were used for determining the amount of protein. In the accomplished keeping experiments, PCB 118 was used as the model PCB.
1 ml of PCB118 (0.1 mg/ml in corn oil) were injected in 40 g sponge tissue. The samples were incubated in sea water for up to 6 days in 20 l aquariums at 17° C. with continuous aeration; the water was exchanged one time at day 2. Aliquot portions of the tissue (each about 200 mg) were withdrawn at the time zero or after an incubation period of 0.5; 1; 3; 5 and 6 days. […]

PrP^Sc exposed neurons = conditions: cited from earlier work

| SMILES | expression of the 14-3-3 gene (mRNA and protein) (14-3-3 gene expression) | effect on PrP^Sc exposed neurons (PrP^Sc exposed neurons) | effect counteracting the neurotoxic peptide PrP106-126 (PrP^Sc exposed neurons) | extent of apoptosis caused by PrP106-126 (PrP^Sc exposed neurons) |
| --- | --- | --- | --- | --- |
| Clc1ccc(-c2cc(Cl)c(Cl)cc2Cl)cc1Cl [PCB118] | very high values |  |  |  |
| CC12CC3CC(C)(C1)CC(N)(C3)C2 [Memantin] |  | protective effect |  |  |
| CCOC(=O)Nc1ccc(NCc2ccc(F)cc2)nc1N [Flupirtin] |  | protective effect | cytoprotective effect | reduces |
